Laboratory results as given in patent publication US9409952B2, “Peptide-compound cyclization method” (Chugai Seiyaku Kabushiki Kaisha, priority 2011, dated 2016).
Like-named read-outs stand apart in the source and are kept apart here. Starred links: 1 amine or outer side, 2 acyl side, 3 side chain; linkers in the order of their positions; H or OH if unused. Positions of bridges follow the written chain, without caps; N, C: chain ends. Non-standard residues stand in square brackets, D forms with d. Residues, ends and D or L forms follow the SMILES beside them. ξ: configuration not given here. *: point of attachment. NMeF = CN[C@@H](Cc1ccccc1)C(=O)O; NMeI = CC[C@H](C)[C@H](NC)C(=O)O; hPhe = N[C@@H](CCc1ccccc1)C(=O)O; NMeβAla = CN(CCC(=O)[*:2])[*:1]; ξThr(3R) = C[C@@H](O)C(N)C(=O)O; Aoc(2) = CCCCCC[C@H](N)C(=O)O; NMeL = CN[C@@H](CC(C)C)C(=O)O; NMeV = CN[C@H](C(=O)O)C(C)C; NMeA = CN[C@@H](C)C(=O)O; Piperidide = C1CCN(*)CC1; dNMeA = CN[C@H](C)C(=O)O; β3hA = C[C@H](N)CC(=O)O; Sar = CNCC(=O)O

What was measured:
[1] = Metabolic stability in human hepatic microsome; type: in vitro ADME; conditions: microsomes
[2] = PAMPA (parallel artificial membrane permeability assay); type: in vitro ADME; conditions: for Papp at 18 hours, 50 µM: PAMPA
Procedure, shortened: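 Artificial membrane was 10% (w/v) egg lecithin plus 0.5% (w/v) cholesterol in dodecane on a PVDF filter. A 10 mM DMSO stock was added at 0.5% (v/v) to donor buffer (50 mM MOPSO, pH 6.5, 5.0% glycocholic acid). After 18 h at 37 °C, LC/MS or LC/UV gave donor and acceptor levels for Pe.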

[3] = pH 7.4, human hepatic microsome, NADPH(+), read-out: CL NADPH(+)
[4] = membrane permeation rate (Pe), 50 mM MOPSO buffer pH 6.5 with 5.0% glycocholic acid, 37° C., 18 hours, read-out: iPAMPA Pe

Structure (SMILES) | microsomal CLint at 1 uM ([1]; human, pH 7.4, CL NADPH(+)) | Papp at 18 hours, 50 µM ([2]; pH 6.5) | microsomal CLint at 1 uM [1, 3] | Papp at 18 hours, 50 µM [2, 4] | iPAMPA Pe ([2]; membrane permeation rate (Pe), 50 mM MOPSO buffer pH 6.5 with 5.0% glycocholic acid, 37° C., 18 hours)
CC[C@H](C)[C@@H]1NC(=O)[C@@H]2CCCN2C(=O)[C@H](Cc2ccccc2)NC(=O)[C@H](Cc2ccccc2)NC(=O)[C@H](CC(C)C)NC(=O)[C@H](C(C)C)N(C)C(=O)[C@H](CC(C)C)NC(=O)[C@H](C)NC(=O)[C@H](C)NC(=O)C[C@@H](C(=O)N2CCCCC2)NC(=O)CNC(=O)C([C@@H](C)O)NC1=O (stereo partly drawn) [DP-3] (AAL[NMeV]LFFPI[ξThr(3R)]GD-Piperidide; lactam N-12) | 45 µL/min/mg | 0.56 ×10⁻⁶ cm/s | – | – | –
CC(C)C[C@@H]1NC(=O)[C@H](Cc2ccccc2)N(C)C(=O)[C@H](C)N(C)C(=O)C[C@@H](C(=O)N2CCCCC2)NC(=O)[C@H](Cc2ccccc2)N(C)C(=O)[C@H](C)N(C)C(=O)[C@H]([C@@H](C)O)NC(=O)CN(C)C(=O)[C@H](C)N(C)C(=O)[C@H](C)NC(=O)[C@H](C(C)C)N(C)C(=O)[C@H](CC(C)C)N(C)C1=O [DP-469] ([NMeA][NMeF]L[NMeL][NMeV]A[NMeA][Sar]T[NMeA][NMeF]D-Piperidide; lactam N-12) | – | – | 23 µL/min/mg | 14 ×10⁻⁶ cm/s | –
CC(C)C[C@@H]1NC(=O)[C@H](C(C)C)N(C)C(=O)[C@H](CCc2ccccc2)NC(=O)CN(C)C(=O)[C@H]([C@@H](C)O)NC(=O)[C@H](C)N(C)C(=O)[C@H](CC(C)C)N(C)C(=O)[C@@H](C(C)C)NC(=O)C[C@@H](C(=O)N2CCCCC2)NC(=O)[C@H](C)NC(=O)[C@H](CC(C)C)N(C)C1=O [DP-736] ([dV][NMeL][NMeA]T[Sar][hPhe][NMeV]L[NMeL]AD-Piperidide; lactam N-11) | – | – | 47 µL/min/mg | 27 ×10⁻⁶ cm/s | –
CCCCCC[C@@H]1NC(=O)[C@H](CC(C)C)N(C)C(=O)[C@@H]2CCCN2C(=O)[C@H](C)N(C)C(=O)[C@H](Cc2ccccc2)N(C)C(=O)[C@H](Cc2ccccc2)N(C)C(=O)CN(C)C(=O)[C@H]([C@@H](C)O)NC(=O)[C@H](C)N(C)C(=O)C[C@H](C)NC(=O)[C@H](C(C)C)N(C)C1=O [DP-774] (cyclo([Aoc(2)][NMeV][β3hA][NMeA]T[Sar][NMeF][NMeF][NMeA]P[NMeL])) | 71 µL/min/mg | 26 ×10⁻⁶ cm/s | – | – | –
CC(C)C[C@H]1C(=O)N(C)[C@@H](Cc2ccccc2)C(=O)N(C)[C@@H](CC(C)C)C(=O)N[C@@H](C)CC(=O)N[C@H](C(C)C)C(=O)N[C@@H](C)C(=O)N[C@@H]([C@@H](C)O)C(=O)N(C)[C@@H](C)C(=O)N[C@@H](Cc2ccccc2)C(=O)N1C [DP-788] (cyclo(AT[NMeA]F[NMeL][NMeF][NMeL][β3hA][dV])) | – | – | 158 µL/min/mg | 49 ×10⁻⁶ cm/s | –
CC(C)C[C@H]1C(=O)N(C)[C@@H](C)C(=O)N[C@@H](C)C(=O)N(C)[C@@H](C)C(=O)N(C)[C@@H](Cc2ccccc2)C(=O)N(C)[C@@H](C)C(=O)N[C@@H]([C@@H](C)O)C(=O)N(C)[C@@H](C)C(=O)N(C)[C@@H](C)C(=O)N[C@H](C(=O)N(C)[C@@H](Cc2ccccc2)C(=O)N[C@@H](C)C(=O)N2CCCCC2)CC(=O)N(C)[C@@H](C)C(=O)N1C [DP-368] ([NMeA][NMeL][NMeA]A[NMeA][NMeF][NMeA]T[NMeA][NMeA]D[NMeF]A-Piperidide; lactam N-11) | – | – | 6 µL/min/mg | 1.6 ×10⁻⁶ cm/s | –
CC[C@H](C)[C@H]1C(=O)N[C@@H](CC(C)C)C(=O)N(C)[C@@H](CC(C)C)C(=O)N[C@H](C(=O)N2CCCCC2)CC(=O)N(C)CC(=O)N(C)[C@@H](CC(C)C)C(=O)N[C@@H]([C@@H](C)O)C(=O)N(C)[C@@H](C)C(=O)N[C@@H](C)C(=O)N(C)[C@@H](Cc2ccccc2)C(=O)N(C)[C@@H](Cc2ccccc2)C(=O)N1C [DP-247] ([Sar][NMeL]T[NMeA]A[NMeF][NMeF][NMeI]L[NMeL]D-Piperidide; lactam N-11) | – | – | 48 µL/min/mg | 28 ×10⁻⁶ cm/s | –
CC[C@H](C)[C@@H]1NC(=O)[C@H](C)N(C)C(=O)[C@H](Cc2ccccc2)N(C)C(=O)[C@H](C)N(C)C(=O)C[C@@H](C(=O)N(C)[C@@H](Cc2ccccc2)C(=O)N(C)[C@@H](Cc2ccccc2)C(=O)N[C@@H](C)C(=O)N2CCCCC2)NC(=O)[C@H](C)N(C)C(=O)[C@H](CC(C)C)N(C)C(=O)[C@H](C)N(C)C(=O)[C@H]([C@@H](C)O)NC(=O)[C@H](C)N(C)C1=O [DP-395] ([NMeA][NMeF][NMeA]I[NMeA]T[NMeA][NMeL][NMeA]D[NMeF][NMeF]A-Piperidide; lactam N-10) | – | – | 23 µL/min/mg | 19 ×10⁻⁶ cm/s | –
CC[C@H](C)[C@@H]1NC(=O)[C@H](C(C)C)NC(=O)[C@H](Cc2ccccc2)N(C)C(=O)[C@H](C(C)C)NC(=O)[C@H](CC(C)C)N(C)C(=O)[C@H](C)NC(=O)C[C@@H](C(=O)N(C)[C@@H](Cc2ccccc2)C(=O)N(C)[C@@H](CC(C)C)C(=O)N[C@H](C(=O)N(C)[C@@H](CC(C)C)C(=O)N[C@H](C(=O)N2CCCCC2)[C@@H](C)CC)[C@@H](C)O)NC1=O [DP-913] (A[NMeL]V[NMeF]VID[NMeF][NMeL]T[NMeL]I-Piperidide; lactam N-7) | – | – | 30 µL/min/mg | – | 1.0E−07
CC(C)C[C@H]1C(=O)N(C)[C@@H](C(C)C)C(=O)N(C)[C@@H](C)C(=O)N[C@@H](Cc2ccccc2)C(=O)N(C)[C@@H](C)C(=O)N[C@H](C(=O)N2CCCCC2)CC(=O)N(C)[C@@H](C)C(=O)N[C@@H]([C@@H](C)O)C(=O)N(C)[C@@H](C)C(=O)N[C@@H](C)C(=O)N(C)[C@@H](Cc2ccccc2)C(=O)N1C [DP-322] ([NMeA]T[NMeA]A[NMeF][NMeL][NMeV][NMeA]F[NMeA]D-Piperidide; lactam N-11) | – | – | 74 µL/min/mg | 10 ×10⁻⁶ cm/s | –
CC[C@H](C)[C@H](NC(=O)[C@@H]1CC(=O)N[C@@H](C)C(=O)N[C@@H](CC(C)C)C(=O)N2CCC[C@H]2C(=O)N[C@@H](C)C(=O)N[C@@H](CC(C)C)C(=O)N(C)CC(=O)N[C@@H]([C@@H](C)O)C(=O)N[C@@H](Cc2ccccc2)C(=O)N[C@@H](CC(C)C)C(=O)N(C)[C@@H](Cc2ccccc2)C(=O)N[C@@H](C(C)C)C(=O)N1)C(=O)N1CCCCC1 [DP-40] (ALPAL[Sar]TFL[NMeF]VDI-Piperidide; lactam N-12) | 38 µL/min/mg | 5.8 ×10⁻⁶ cm/s | – | – | –
CC(C)C[C@H]1C(=O)N[C@H](C(=O)N(C)[C@@H](Cc2ccccc2)C(=O)N[C@@H](C)C(=O)N2CCCCC2)CC(=O)N(C)[C@H](C)C(=O)N(C)[C@@H](CC(C)C)C(=O)N(C)[C@@H](C)C(=O)N[C@@H]([C@@H](C)O)C(=O)N[C@@H](Cc2ccccc2)C(=O)N(C)[C@@H](Cc2ccccc2)C(=O)N[C@@H](C(C)C)C(=O)N1C [DP-381] ([dNMeA][NMeL][NMeA]TF[NMeF]V[NMeL]D[NMeF]A-Piperidide; lactam N-9) | – | – | 84 µL/min/mg | 45 ×10⁻⁶ cm/s | –
C=C1CCC(=O)N[C@@H](CC(C)C)C(=O)N(C)[C@@H](CC(C)C)C(=O)N(C)[C@@H]([C@@H](C)CC)C(=O)N[C@@H](C)C(=O)N(C)[C@@H](Cc2ccccc2)C(=O)N[C@@H]([C@@H](C)O)C(=O)N(C)CC(=O)N(C)[C@@H](Cc2ccccc2)C(=O)N(C)[C@@H](CC(C)C)C(=O)N[C@H](C(=O)N2CCCCC2)Cc2ccc1cc2 [DP-864] | – | – | 171 µL/min/mg | 2.3 ×10⁻⁶ cm/s | –
CC[C@H](C)[C@@H]1NC(=O)[C@@H](C)N(C)C(=O)C[C@@H](C(=O)N(C)[C@@H](Cc2ccccc2)C(=O)N[C@@H](C)C(=O)N2CCCCC2)NC(=O)[C@H](Cc2ccccc2)N(C)C(=O)[C@H](C)NC(=O)[C@H](CC(C)C)N(C)C(=O)[C@H](C)N(C)C(=O)[C@H]([C@@H](C)O)NC(=O)[C@H](C(C)C)N(C)C(=O)[C@H](C)N(C)C1=O [DP-124] ([dNMeA]I[NMeA][NMeV]T[NMeA][NMeL]A[NMeF]D[NMeF]A-Piperidide; lactam N-10) | 27 µL/min/mg | 20 ×10⁻⁶ cm/s | – | – | –
C=C1CCC(=O)N(C)[C@@H](Cc2ccccc2)C(=O)N(C)CC(=O)N(C)[C@@H](CC(C)C)C(=O)N[C@@H]([C@@H](C)O)C(=O)N(C)[C@@H](C)C(=O)N(C)[C@@H](CC(C)C)C(=O)N(C)[C@@H]([C@@H](C)CC)C(=O)N[C@@H](COC(C)(C)C)C(=O)N[C@H](C(=O)N2CCCCC2)Cc2cccc1c2 [DP-831] | 683 µL/min/mg | 55 ×10⁻⁶ cm/s | – | – | –
CC(C)C[C@H]1C(=O)N[C@H](C(=O)N(C)[C@@H](Cc2ccccc2)C(=O)N(C)[C@@H](Cc2ccccc2)C(=O)N[C@@H](C)C(=O)N2CCCCC2)CC(=O)N[C@H](C)C(=O)N(C)[C@@H](C)C(=O)N(C)[C@@H](Cc2ccccc2)C(=O)N(C)[C@@H](CC(C)C)C(=O)N[C@@H]([C@@H](C)O)C(=O)N(C)[C@@H](C)C(=O)N(C)[C@@H](CC(C)C)C(=O)N[C@@H](C(C)C)C(=O)N1C [DP-204] ([dA][NMeA][NMeF][NMeL]T[NMeA][NMeL]V[NMeL]D[NMeF][NMeF]A-Piperidide; lactam N-10) | – | – | 48 µL/min/mg | 22 ×10⁻⁶ cm/s | –
CC[C@H](C)[C@@H]1NC(=O)CCN(C)C(=O)C[C@@H](C(=O)N(C)[C@@H](Cc2ccccc2)C(=O)N(C)[C@@H](Cc2ccccc2)C(=O)N[C@@H](C)C(=O)N2CCCCC2)NC(=O)[C@H](C(C)C)N(C)C(=O)[C@H](C)NC(=O)[C@H](CC(C)C)N(C)C(=O)CN(C)C(=O)[C@H]([C@@H](C)O)NC(=O)[C@H](C)N(C)C(=O)[C@H](Cc2ccccc2)N(C)C1=O [DP-495] ([NMeβAla]I[NMeF][NMeA]T[Sar][NMeL]A[NMeV]D[NMeF][NMeF]A-Piperidide; lactam N-10) | – | – | 7 µL/min/mg | 21 ×10⁻⁶ cm/s | –
CC[C@H](C)[C@H]1C(=O)N[C@@H](C)C(=O)N(C)[C@@H](CC(C)C)C(=O)N(C)[C@@H](Cc2ccccc2)C(=O)N[C@@H]([C@@H](C)O)C(=O)N(C)[C@@H](Cc2ccccc2)C(=O)N(C)[C@@H](CC(C)C)C(=O)N(C)[C@@H](CC(C)C)C(=O)N[C@H](C(=O)N2CCCCC2)CC(=O)N(C)CC(=O)N1C [DP-147] ([Sar][NMeI]A[NMeL][NMeF]T[NMeF][NMeL][NMeL]D-Piperidide; lactam N-10) | 147 µL/min/mg | 29 ×10⁻⁶ cm/s | – | – | –
